In this assay the target is T1, BRD4 BD2 (Homo sapiens, UniProt O60885, Y97A).
T1 construct: BRD4 (1-477) (Y97A) and (Y390A); made in house; host or cells: E. coli (pET15b vector)
Briefly: BRD4 BD2 TR-FRET competition assay. It is filed as binding. Particulars: single mutant tandem BRD4, read-out: pIC50 in the BRD4 BD2 assay (converted). The procedure:
Bromodomain binding was assessed utilising a time resolved fluorescent resonance energy transfer (TR-FRET) competition assay. To enable this approach a known, high affinity, pan-BET interacting small molecule was labelled with Alexa Fluor® 647, which is a far-red-fluorescent dye (Reference Compound X). Reference Compound X acts as a reporter of bromodomain binding and is the acceptor fluorophore component of the TR-FRET pair. Europium chelate, conjugated to an anti-6*His antibody, was utilised as the donor fluorophore in the TR-FRET pair. […] A TR-FRET signal is generated when the donor and acceptor fluorophores are in close proximity, between 20-80 Å, which is enabled in this assay by binding of Reference Compound X to the bromodomain protein.
In order to generate a TR-FRET signal, donor fluorophore is excited by a laser at λ337 nm, which subsequently leads to emission at λ618 nm. If the acceptor fluorophore is in close proximity then energy transfer can occur, which leads to emission of Alexa Fluor® 647 at λ665 nm. In the presence of competitor compound, Reference Compound X can be displaced from binding to the bromodomain. If displacement occurs, the acceptor fluorophore is no longer in proximity to the donor fluorophore, which prevents fluorescent energy transfer and, subsequently, a loss of Alexa Fluor® 647 emission at λ665 nm.
The competition of the compounds of formula (I) with Reference Compound X for binding to the BET family (BRD2, BRD3, BRD4 and BRDT) was assessed using protein truncates spanning both bromodomain 1 (BD1) and bromodomain 2 (BD2). In order to monitor differential binding to either BD1 or BD2, single residue mutations of key tyrosines to alanine were made in the acetyl lysine binding pockets. To validate this approach, a double residue mutant tandem domain protein was produced for each of the BET family members. Utilising a Fluorescence Polarisation approach, binding affinities for each of the single and double mutants for Reference Compound X were determined.
Final purification was completed by Superdex 200 prep grade size exclusion column. Purified protein was stored at −80° C. in 20 mM HEPES pH 7.5 and 100 mM NaCl.
All assay components were dissolved in an assay buffer composing of 50 mM HEPES pH7.4, 50 mM NaCl, 5% Glycerol, 1 mM DTT and 1 mM CHAPS. Reference Compound X was diluted, in assay buffer containing 20 nM single mutant, tandem bromodomain protein, to a concentration equivalent to 2*Kd for this bromodomain. The solution containing bromodomain and Reference Compound X was added to dose response dilutions of test compound or DMSO vehicle (a maximum of 0.5% DMSO is used in this assay) in Greiner 384 well black low volume microtitre plates and subsequently incubated for 30 minutes at room temperature. An equal volume of 3 nM of anti-6*His Europium chelate was added to all wells, followed by a further 30 minute incubation at room temperature. TR-FRET was detected using a Perkin Elmer Multimode plate reader, by exciting the donor fluorophore at λ337 nm and subsequently, after a delay of 50 μsecs, measuring emission of the donor and acceptor fluorophores at λ615 nm and λ665 nm, respectively. In order to control these assays, 16 replicates each of uninhibited (DMSO vehicle) and inhibited (10*IC50 concentrations of Example 11 of WO 2011/054846A1) TR-FRET assays were included on every microtitre plate.
cA four parameter curve fit of the following form was then applied: y=a+((b−a)/(1+(10^x/10^c)^d)
Where ‘a’ is the minimum, ‘b’ is the Hill slope, ‘c’ is the pIC50 and ‘d’ is the maximum.
Background: Time-resolved FRET reads energy transfer from a long-lived donor to a nearby acceptor.
With `CNC(=O)c1cc(C(=O)NCCC(C)N(C)C)cn(Cc2ccccc2)c1=O` (stereo not drawn) [Example 33, 1-Benzyl-N^5-(3-(dimethylamino)butyl)-N^3-methyl-2-oxo-1,2-dihydropyridine-3,5-dicarboxamide], the IC50 was 100 to 1000 nM.
As for `CNC(=O)c1cc(C(=O)NCCc2ccncc2)cn(Cc2ccccc2)c1=O` [Example 34, 1-Benyl-N^3-methyl-2-oxo-N^5-(2-(pyridin-4-yl)ethyl)-1,2-dihydropyridine-3,5-dicarboxamide], the figure is 100 to 1000 nM.
In the case of `CNC(=O)CCNC(=O)c1cc(C(=O)NC)c(=O)n(Cc2ccccc2)c1` [Example 35, 1-Benzyl-N^3-methyl-N^5-(3-(methylamino)-3-oxopropyl)-2-oxo-1,2-dihydropyridine-3,5-dicarboxamide] it was 100 to 1000 nM; in that of `CNC(=O)c1cc(C(=O)NCCCC#N)cn(Cc2ccccc2)c1=O` [Example 36, 1-Benzyl-N^5-(3-cyanopropyl)-N^3-methyl-2-oxo-1,2-dihydropyridine-3,5-dicarboxamide], 100 to 1000 nM.
As for `CNC(=O)c1cc(C(=O)NCCC#N)cn(Cc2ccccc2)c1=O` [Example 37, 1-Benzyl-N^5-(2-cyanoethyl)-N^3-methyl-2-oxo-1,2-dihydropyridine-3,5-dicarboxamide], the figure is 100 to 1000 nM.
Take `CNC(=O)c1cc(C(=O)NCCCN)cn(Cc2ccccc2)c1=O` [Example 38, N^5-(3-Aminopropyl)-1-benzyl-N^3-methyl-2-oxo-1,2-dihydropyridine-3,5-dicarboxamide]: the IC50 was 100 to 1000 nM.
For `CNC(=O)c1cc(C(=O)NCCC(C)O)cn(Cc2ccccc2)c1=O` (stereo not drawn) [Example 39, 1-Benzyl-N^5-(3-hydroxybutyl)-N^3-methyl-2-oxo-1,2-dihydropyridine-3,5-dicarboxamide], the IC50 is 100 to 1000 nM.
For `CNC(=O)c1cc(C(=O)NCCc2cccnc2)cn(Cc2ccccc2)c1=O` [Example 40, 1-Benzyl-N^3-methyl-2 oxo-N^5-(2-(pyridin-3-yl)ethyl)-1,2-dihydropyridine-3,5-dicarboxamide], the IC50 was 100 to 1000 nM.
In the case of `CNC(=O)c1cc(C(=O)NCCCOC)cn(Cc2ccccc2)c1=O` [Example 42, 1-Benzyl-N^5-(3-methoxypropyl)-N^3-methyl-2-oxo-1,2-dihydropyridine-3,5-dicarboxamide] it was 100 to 1000 nM.
As for `CNC(=O)c1cc(C(=O)NC)c(=O)n(Cc2cccc(C#N)c2)c1` [Example 43, 1-(3-Cyanobenzyl)-N^3,N^5-dimethyl-2-oxo-1,2-dihydropyridine-3,5-dicarboxamide], the figure is 1000 to 100000 nM.
In the case of `CNC(=O)c1cc(C(=O)NCCS(C)(=O)=O)cn(Cc2ccccc2)c1=O` [Example 45, 1-Benzyl-N^3-methyl-N^5-(2-(methylsulfonyl)ethyl)-2-oxo-1,2-dihydropyridine-3,5-dicarboxamide] it was 100 to 1000 nM; in that of `CNC(=O)c1cc(C(=O)NCCCN(C)C)cn(Cc2ccccc2)c1=O` [Example 47, 1-Benzyl-N^5-(3-(dimethylamino)propyl)-N^3-methyl-2-oxo-1,2-dihydropyridine-3,5-dicarboxamide], 100 to 1000 nM.
`CNC(=O)c1cc(C(=O)NCCCS(C)(=O)=O)cn(Cc2ccccc2)c1=O` [Example 48, 1-Benzyl-N^3-methyl-N^5-(3-(methylsulfonyl)propyl)-2-oxo-1,2-dihydropyridine-3,5-dicarboxamide]: the IC50 was 100 to 1000 nM.
Turning to `CNC(=O)c1cc(C(=O)NCCc2c[nH]cn2)cn(Cc2cccc(C)c2F)c1=O` [Example 49, N^5-(2-(1H-Imidazol-4-yl)ethyl)-1-(2-fluoro-3-methylbenzyl)-N3-methyl-2-oxo-1,2-dihydropyridine-3,5-dicarboxamide], the IC50 is 100 to 1000 nM.
As to `CNC(=O)c1cc(C(=O)NCCc2ccn[nH]2)cn(Cc2ccccc2)c1=O` [Example 50, N^5-(2-(1H-Pyrazol-5-yl)ethyl)-1-benzyl-N^3-methyl-2-oxo-1,2-dihydropyridine-3,5-dicarboxamide], the IC50 was 100 to 1000 nM.

Values taken from patent US10471050B2, “2-OXO-1,2-dihydropyridine-3,5-dicarboxamide compounds as bromodomain inhibitors” (GlaxoSmithKline Intellectual Property (No. 2) Limited, priority 2015, dated 2019).
